Assays:
[1] = tested on: WSU-DLCL2 human B-Cell Non-Hodgkin-Lymphoma (NHL); assay: Tumor growth inhibition study in vivo, WSU-DLCL2 xenograft (Example 1); design: species or system SCID beige mice
Source text: Antibody buffer included histidine, trehalose and polysorbate 20.
Cyclophposphamide and vincristine were purchased as clinical formulation from Baxter Oncology GmbH, Halle, Germany or medac, Gesellschaft für klinische Spezialpräparate mbH, Hamburg, Germany, respectively. Dilution was adjusted from reconstituted stock solution.
WSU-DLCL2 human Non-Hodgkin-Lymphoma (NHL) cells were kindly provided from Hoffmann-La Roche, Inc., Nutley, N.J., USA. […] Passage 4 was used for transplantation. Cells were co-injected with Matrigel.
Continuous health monitoring was carried out on regular basis.
Animal treatment started at the day of randomisation 9 days after cell transplantation. […] The corresponding vehicle was administered on the same days. Cyclophosphamide and vincristine were given i.v. once weekly on day 9, 15, 23, 30, 37, 44, 51 and 58 at 25 mg/kg or 0.25 mg/kg, respectively. In the combination therapy groups, both antibodies were administered 24 hours after the chemotherapeutic agents on day 10, 16, 24, 31, 38, 45, 52 and 59.

[2] = biological target: T1, CD20 on Raji cells (ATCC-No. CCL-86) (Homo sapiens, UniProt P11836); assay: Ratio of the binding capacities to CD20 on Raji cells compared to rituximab (direct immunofluorescence, Cy5, FACSArray); settings: MFI at EC50 of Cy5-labeled antibodies, 30 min at 4° C.
T1 construct: generated by direct immunofluorescence using the Burkitt's lymphoma cell line Raji (ATCC-No. CCL-86); host or cells: Raji (Burkitt's lymphoma cell line)
T1 sequence (P11836 1-297): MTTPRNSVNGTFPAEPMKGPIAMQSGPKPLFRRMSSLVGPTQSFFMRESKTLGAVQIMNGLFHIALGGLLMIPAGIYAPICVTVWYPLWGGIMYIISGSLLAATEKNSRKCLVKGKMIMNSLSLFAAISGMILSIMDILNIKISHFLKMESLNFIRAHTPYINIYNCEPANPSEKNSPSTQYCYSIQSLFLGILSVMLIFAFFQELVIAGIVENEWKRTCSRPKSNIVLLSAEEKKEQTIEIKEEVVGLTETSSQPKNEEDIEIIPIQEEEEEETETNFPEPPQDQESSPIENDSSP
Method: MFI is the mean fluorescent intensity. The “Cy5-labeling ratio” as used herein means the number of Cy5-label molecules per molecule antibody.
Raji cells (ATCC-No. CCL-86) were maintained in culture in RPMI-1640 medium (PanBiotech GmbH, Cat.-No. PO4-18500) containing 10% FCS (Gibco, Cat.-No. 10500-064). […] 5*10^5 cells per sample were stained for 30 min at 4° C. Afterwards, cells were washed in culture medium. Propidium iodide (PI) staining was used to exclude dead cells.
Then the ratio of the binding capacities to CD20 on Raji cells (ATCC-No. CCL-86) is calculated according to the following formula: […]

With “anti-CD20 antibody B-HH6-B-KV1 GE: Type II anti-CD20 antibody; humanized B-Ly1, glycoengineered B-HH6-B-KV1 with increased ADCC (WO 2005/044859, WO 2007/031875)” the tumor growth inhibition ([1]; day 35 after cell transplantation, compared to the control group, i.v. once weekly, antibodies 30 mg/kg, cyclophosphamide 25 mg/kg, vincristine 0.25 mg/kg) was 85%, the “Tumor growth delay, T − C value” ([1]; median time to reach 1500 mm^3, treatment minus control, until day 64 after cell transplantation) was 19 days and the “binding capacity to CD20 on Raji cells compared to rituximab” value [2] was “reduces binding capacity”.

Source: patent US20160000911A1, “COMBINATION THERAPY OF A TYPE II ANTI-CD20 ANTIBODY WITH INCREASED ANTIBODY DEPENDENT CELLULAR CYTOTOXITY (ADCC)” (ROCHE GLYCART AG, priority 2008, published 2016)
